The subject of data set [1] is HBV capsids. Nature of the data set: Particle gel assay of nucleocapsids in AML12HBV10 cells. The format is cell-based, Hepatitis B virus (HBV). The following applies: 2 days, FIG. 1 panel B. The procedure:
(§1) FIG. 1. Antiviral mechanism of the compounds of the present invention. AML12HBV10 cells were left untreated (NT) or treated with the indicated concentrations of the compounds of the disclosure Compound 6 and Compound 19, respectively, for 2 days. Bay-4109 (3 µM) or AT-61 (25 µM) served as positive controls. (A) Intracellular viral RNA was determined by Northern blot hybridization. Ribosomal RNA served as a loading control. (B) The total amounts of nucleocapsids were determined by a particle gel assay. (C) Encapsidated pgRNA were extracted and measured by Northern blot. (D) Nucleocapsid-associated HBV DNA was quantified by alkaline-treatment of nucleocapsids on the membrane following the particle gel assay and hybridized with a HBV-specific riboprobe. (E) HBV DNA replication intermediates were extracted and determined by Southern blot hybridizations.
(§2) Procedures of viral capsids and nucleocapsid-associated DNA analysis: AML12HB10 cells were lysed by addition of 300 μl buffer containing 10 mM Tris-HCl (pH7.6), 100 mM NaCl, 1 mM EDTA and 0.1% NP-40 to each well of 12-well plate. Cell debries were removed by centrifugation at 5000 g for 10 minutes. Ten microliters of the clarified cell lysates were fractionated by electrophoresis through nondenaturing 1% agarose gels and transferred to a nitrocellulose filter by blotting with TNE buffer (10 mM Tris-HCl, pH7.6; 150 mM NaCl and 1 mM EDTA). HBV capsids were detected by probing the membrane with an antibody against HBV core protein (DAKO). […] To detect capsid associated HBV DNA, the membrane were treated with buffer containing 0.5N NaOH and 1.5 M NaCl for 5 minutes and followed by neutralization with buffer containing 1 M TRIS-HCl and 1.5M NaCl for 5 minutes. The viral DNA was detected by hybridization with a α-^32P-UTP (800 Ci/mmol, Perkin Elmer) labeled minus strand specific full-length HBV riboprobe (Xu et al.).

Data set [2] deals with encapsidated pgRNA. The data set can be described thus: Encapsidated pgRNA by Northern blot in AML12HBV10 cells. Format: cell-based, Hepatitis B virus (HBV). The following applies: 2 days, FIG. 1 panel C. The procedure:
as §1
Determination of encapsidated pgRNA: AML12HBV10 cells were lysed by addition of 600 μl of lysis buffer (50 mM Tris-HCl [pH 7.5], 1 mM EDTA, 150 mM NaCl, 1% NP-40) into each well of 12-well plates. The nuclei were removed by centrifugation at 5,000 g for 10 minutes. One-half of the sample was mixed with 6 U of micrococcal nuclease (Pharmacia) and 15 μl of 100 mM CaCl2 and incubated for 15 minutes at 37° C. to digest free nucleic acids. The reaction was stopped with 6 μl of 0.5 M EDTA, and capsids were precipitated by adding 125 μl of 35% polyethylene glycol 8000 in 1.75 M NaCl to the reaction and incubating in ice for 30 minutes, followed by centrifugation at 6,000 g for 10 minutes at 4° C. Pellets were re-suspended in 50 μl of TNE buffer (10 mM Tris-HCl [pH 8], 100 mM NaCl, 1 mM EDTA). pgRNA was extracted by the addition of 1 ml of Trizol reagent. The encapsidated pgRNA were electrophoresed through a 2.2 M formaldehyde-1% agarose gel, transferred to a nylon membrane, and immobilized by UV cross-linking (Stratagene). Hybridization was performed with an alpha-^32P-UTP labeled riboprobe specific for plus strand of HBV genome.

Data set [3] relates to capsid-associated HBV DNA. Nature of the data set: Capsid-associated HBV DNA and DNA replication intermediates in AML12HBV10 cells. The format is cell-based, Hepatitis B virus (HBV). Conditions: 2 days, FIG. 1 panels D and E. On the procedure: as §1, §2
To analyze the HBV DNA replication intermediates, cells were lysed by adding into each well of the 12-well plates 0.5 ml of lysis buffer containing 10 mM Tris-HCl (pH 8.0), 1 mM EDTA, 1% NP40 and 2% sucrose and incubating at 37° C. for 10 minutes. Cell debris and nuclei were removed by centrifugation and the supernatant was mixed with 130 μl of 35% polyethylene glycol (PEG) 8000 containing 1.5 M NaCl. After 1 hour incubation in ice, viral nucleocapsids were pelleted by centrifugation at 6,000×g for 5 minutes at 4° C., followed by 1 hour digestion at 37° C. in 400 μl of digestion buffer containing 0.5 mg/ml pronase (Calbiochem), 0.5% SDS, 150 mM NaCl, 25 mM Tris-HCl (pH 8.0) and 10 mM EDTA. The digestion mixture was extracted twice with phenol and DNA was precipitated with ethanol, dissolved in TE buffer (10 mM Tris-HCl, pH 8.0; 0.1 mM EDTA). […]

Data set [4] relates to HBV replication in AML12HBV10 cells. Nature of the data set: Antiviral efficacy in AML12HBV10 cells (HBV DNA dot-blot hybridization). Format: cell-based, Hepatitis B virus (HBV). The procedure: The HBV replication inhibitors of the present invention are capable of treating and preventing diseases associated with HBV infection.
The antiviral efficacy of the compounds of the disclosure, as presented in Table 1, were determined in AML12HBV10 cells. AML12HBV10 is an immortalized murine hepatocyte (AML12)-derived stable cell line that supports robust HBV replication in a tetracycline inducible manner (Xu et al.). The cells were seeded into 96 well plates at a density of 2×10^4 cells per well and cultured in DMEM/F12 media with 10% fetal bovine serum in the absence of tetracycline to allow pgRNA transcription and HBV DNA replication. One day after seeding, cells were left untreated or treated with a serial dilution of testing compounds, ranging from 50 μM to 0.39 μM, for 48 hours. Cells were then lysed by adding into each well of 100 μl lysis buffer containing 10 mM Tris-HCl (pH 7.6), 1 mM EDTA, 100 mM NaCl and 1% NP-40 and incubated at 37° C. for 30 minutes. Half amount (50 μl) of cell lysate from each well was combined with equal volume of denaturing solution containing 0.5N NaOH and 1.5M NaCl. After 5 minute incubation, 100 µl of neutralization solution (1M Tris-HCl, pH 7.4, 1.5M NaCl) was added into each well. The denatured cell lysates (totally 200 μl) were applied onto Nylon membrane using 96-well dot-blot manifold (Biorad). HBV DNA in the cell lysates were determined by dot-blot hybridization with alpha-^32P-UTP-labelled riboprobe specific for HBV minus strand DNA. The antiviral efficacy of a compound of the disclosure was expressed as the concentration that reduces the amount of HBV DNA by 50% (EC50).

The subject of data set [5] is AML12HBV10 cells. Nature of the data set: Cytotoxicity in AML12HBV10 cells (MTT assay). Conditions: concentration that reduces viability by 50%, 48 hours, serial dilution 50 μM to 0.39 μM. Format: cell-based, murine. The procedure: (§3) Determination of cytotoxicity of compounds of the disclosure in AML12HBV10 cells: To determine the cytotoxicity of the compounds, AML12HBV10 cells were seeded into 96-well plates at a density of 2×10^4 cells per well and cultured in DMEM/F12 media with 10% fetal bovine serum in the absence of tetracycline to allow pgRNA transcription and HBV DNA replication. One day after seeding, cells were left untreated or treated with a serial dilution of testing compounds, ranging from 50 μM to 0.39 μM, for 48 hours. The cell viability was measured by a MTT assay, following procedure provided by the manufacturer (Promega). The cytotoxicity of a compound was expressed as the concentration of compound that reduces the viability of the cells by 50% (CC50).

The subject of data set [6] is HBV replication in HepDES19 cells. The data set can be described thus: Antiviral activity in HepDES19 cells (core-associated HBV DNA, Southern blot). The following applies: concentration that reduces core-associated HBV DNA by 50%; 6 days; serial dilution 10 μM to 0.018 μM. Format: cell-based, Hepatitis B virus (HBV). The source says:
Determination of antiviral activity of compounds of the disclosure, as presented in Table 1, in human hepatoma-derived cell lines: To further confirm the antiviral activity of the compounds of the disclosure against HBV in human hepatocyte-derived cells, HepDES19 cells, a human hepatoma cell line supporting HBV replication in a tetracycline inducible manner (Guo et al., 2007), seeded into 12-well plates at a density of 5×10^5 cells per well and cultured in DMEM/F12 media with 10% fetal bovine serum and 1 μg/ml tetracycline. Two days after seeding, the cells were mock-treated or treated with a serial dilution of compounds of the disclosure, ranging from 10 μM to 0.018 μM, for 6 days in the absence of tetracycline. Upon the completion of treatment, cells were lysed by adding into each well of the 12-well plates 0.5 ml of lysis buffer containing 10 mM Tris-HCl (pH 8.0), 1 mM EDTA, 1% NP40 and 2% sucrose and incubating at 37° C. for 10 minutes. Cell debris and nuclei were removed by centrifugation and the supernatant was mixed with 130 μl of 35% polyethylene glycol (PEG) 8000 containing 1.5 M NaCl. After 1 hour incubation in ice, viral nucleocapsids were pelleted by centrifugation at 6,000×g for 5 min at 4° C., followed by 1 hour digestion at 37° C. in 400 μl of digestion buffer containing 0.5 mg/ml pronase (Calbiochem), 0.5% SDS, 150 mM NaCl, 25 mM Tris-HCl (pH 8.0) and 10 mM EDTA. The digestion mixture was extracted twice with phenol and DNA was precipitated with ethanol, dissolved in TE buffer (10 mM Tris-HCl, pH 8.0; 0.1 mM EDTA). One half of the DNA sample from each well was resolved by electrophoresis into a 1.5% agarose gel. The gel was then subjected to denaturation in a solution containing 0.5 M NaOH and 1.5 M NaCl, followed by neutralization in a buffer containing 1 M Tris-HCl (pH7.4) and 1.5 M NaCl. DNA was then blotted onto Hybond-XL membrane (GE Health care) in 20×SSC buffer. The amounts of cytoplasmic HBV core-associated HBV DNA were determined by Southern blot hybridization and the antiviral efficacy of a compound was expressed as its concentration that reduce the amount of HBV DNA by 50% (EC50) or 90% (EC90).

Data set [7] can be described thus: Cytotoxicity in AML12HBV10 cells (MTT assay). Format: cell-based, murine. The following applies: mouse, concentration that reduces viability by 50%, serial dilution 50 μM to 0.39 μM. The procedure:
as §3
A general note: Formazan colour is commonly taken as a measure of viable cells.

Data set [8] concerns HBV mRNA. Nature of the data set: Intracellular viral RNA by Northern blot in AML12HBV10 cells. The format is cell-based, Hepatitis B virus (HBV). Conditions: 2 days, FIG. 1 panel A. On the procedure:
as §1
Procedure for analysis of HBV mRNA: Upon the completion of treatment, total cellular RNA was extracted with TRIzol reagents (Invitrogen). Five micrograms of total RNA was resolved in 1.5% agarose gel containing 2.2 M formadelhyde and transferred onto Hybond-XL membrane in 20×SSC buffer. The amounts of HBV mRNA were determined by Northern blot hybridization with an alpha-^32P-UTP labeled riboprobe specific for plus strand of HBV genome.

Molecules are shown by their SMILES. Read-outs that look alike come from different tables or passages of the source.

As usually defined, the CC50 is the concentration that lowers cell viability or growth by half. A higher CC50 goes with better tolerance by the cells.

For the compound `COC(=O)C1=C(C)NC(c2ncc(F)cc2F)=N[C@H]1c1ccc(F)cc1Cl` [Bay41-4109, reference compound], in data set [1], the capsid formation result is recorded as “completely abolished”. In addition, the “level of encapsidated pgRNA” value in data set [2] is listed as “completely abolished”. In addition, in data set [3], the “capsid-associated HBV DNA / DNA synthesis” value is “completely abolished”.

Take `O=C(Nc1ccccc1)c1scc2c1OCCO2` [Entry 10]: the EC50 was found to be 4.48 µM in data set [4] (read-out: AML12HBV10 EC50, concentration that reduces the amount of HBV DNA by 50%, 48 hours, serial dilution 50 μM to 0.39 μM) and 8.45 µM in data set [6]. Besides, in data set [5], the CC50 was above 50 µM.

Consider `O=C(Nc1cccc(Cl)c1)c1cccc2c1OCCO2` [Entry 19], for which the EC50 in data set [4] (Hepatitis B virus, AML12HBV10, 48 h, read-out: AML12HBV10 EC50, concentration that reduces the amount of HBV DNA by 50%, serial dilution 50 μM to 0.39 μM) was below 0.4 µM. This compound came in with a CC50 at 48 h in data set [7] above 50 µM. In addition, in data set [8], the “amount of viral mRNA” value is given as “did not affect”. For the same compound, the capsid formation result in data set [1] is “did not significantly affect”. Also, the “level of encapsidated pgRNA” value in data set [2] is listed as “dose-dependently reduced”. Besides, the “capsid-associated HBV DNA / DNA synthesis” value in data set [3] was “reduced encapsidated pgRNA and capsid-associated HBV DNA in a dose-dependent manner”.

Turning to `O=C(N/C(C(=O)N1CCCCC1)=C(/Cl)c1ccccc1)c1ccccc1` [AT-61, reference compound], the capsid formation result in data set [1] is listed as “did not affect”. Besides, the “level of encapsidated pgRNA” value in data set [2] is given as “dose-dependently reduced”. The “capsid-associated HBV DNA / DNA synthesis” value in data set [3] is “dose-dependently reduced”.

The values are drawn from US20190092720A1, “FUNCTIONALIZED BENZAMIDE DERIVATIVES AS ANTIVIRAL AGENTS AGAINST HBV INFECTION” (BARUCH S. BLUMBERG INSTITUTE, priority 2012, published 2019).
